# Measured values reported in patent publication US20190196073A1, “COMPOSITION, FILM, NEAR INFRARED CUT FILTER, PATTERN FORMING METHOD, LAMINATE, SOLID IMAGE PICKUP ELEMENT, IMAGE DISPLAY DEVICE, CAMERA MODULE, AND INFRARED SENSOR” (FUJIFILM Corporation, priority 2016, published 2019).
# Experiments:
# [1] = Measurement of absorption maximum of near infrared absorbing compound in solution; format: physicochemical
# Description: In addition, in the present invention, a case where the near infrared absorbing compound “has an absorption maximum in a wavelength range of 650 to 1000 nm” represents the near infrared absorbing compound has a maximum absorbance in a wavelength range of 650 to 1000 nm in an absorption spectrum of the near infrared absorbing compound in a solution. A measurement solvent used for measuring an absorption spectrum of the near infrared absorbing compound in the solution is not particularly limited as long as the near infrared absorbing compound is soluble therein. From the viewpoint of solubility, for example, chloroform, dimethylformamide, tetrahydrofuran, or methylene chloride can be used. For example, in the case of a compound which is soluble in chloroform, chloroform is used as the measurement solvent. In the case of a compound which is not soluble in chloroform, methylene chloride is used. In addition, in the case of a compound which is not soluble in chloroform and methylene chloride, dimethylformamide is used. In addition, in the case of a compound which is not soluble in chloroform, methylene chloride, and dimethylformamide, tetrahydrofuran is used.
# <Measurement of Absorption Maximum of Near Infrared Absorbing Compound>
# A near infrared absorbing compound shown in the following tables was dissolved in a measurement solvent shown in the following tables to prepare a sample solution. Using a spectrophotometer U-4100 (manufactured by Hitachi High-Technologies Corporation), an absorbance of the sample solution in a wavelength range of 300 to 1300 nm was measured to obtain an absorption maximum.
# [2] = Measurement of solubility of near infrared absorbing compound in propylene glycol methyl ether acetate; details: for solubility at 30 min: propylene glycol methyl ether acetate, 25 °C, organic solvent or mixture, thermodynamic from solid
# Description: (§1) Under the atmospheric pressure, about 100 mg (a precisely weighed value is represented by X mg) of the near infrared absorbing compound is added to 1 L of propylene glycol methyl ether acetate at 25° C., and the components are stirred for 30 minutes. Next, the solution is left to stand for 5 minutes and then is filtered, and the filtrate is dried under reduced pressure at 80° C. for 2 hours is precisely weighed (a precisely weighed value is represented by Y mg). The solubility of the near infrared absorbing compound dissolved in propylene glycol methyl ether acetate is calculated from the following expression.
# [3] = physchem; details: 25 °C, organic solvent or mixture, thermodynamic from solid
# Description: as §1
Compound,Absorption Maximum ([1]; measurement solvent Chloroform) [nm],solubility at 30 min [3] [µg/mL],other results
"4,5-octakis(phenylthio)-3,6-{tetrakis(2,6-dimethylphenoxy)-tetrakis(n-hexyamino)}copper phthalocyanine [AR-1, reference compound]",780,–,–
"CCCCCCCC(CCCCCCC)N1C(=O)c2ccc3c4ccc5c6ccc7c8ccc9c%10c(ccc(c%11ccc(c%12ccc(c%13ccc(c2c3%13)C1=O)c4c5%12)c6c7%11)c%108)C(=O)N(C(CCCCCCC)CCCCCCC)C9=O [AR-4, reference compound]",765,–,solubility at 30 min [2]: 32.1 µg/mL
O=C1c2ccc3c4ccc5c6ccc7c8ccc9c%10c(ccc(c%11ccc(c%12ccc(c%13ccc(c2c3%13)C(=O)N1c1ccccc1)c4c5%12)c6c7%11)c%108)C(=O)N(c1ccccc1)C9=O [Example A-2],–,–,Absorption Maximum ([1]; measurement solvent Methylene Chloride): 765 nm; solubility at 30 min [2]: 0.64 µg/mL
c1ccc2cc3c(cc2c1)C1=NC3=Nc2c3cc4ccccc4cc3c3[n]2[Cu][n]2c(c4cc5ccccc5cc4c2=NC2=NC(=N3)c3cc4ccccc4cc32)=N1 [Example A-3],775,–,"Solubility ([2]; in propylene glycol methyl ether acetate at 25° C., about 100 mg added to 1 L): 0.33 µg/mL"
NC(=O)c1cccc(N2C(=O)NC(=O)/C(=C/C=C(/C=C/c3c([O-])[nH]c(=O)n(-c4cccc(C(N)=O)c4)c3=O)c3ccccc3)C2=O)c1.[K+] [Example A-4],–,–,Absorption Maximum ([1]; measurement solvent Dimethylformamide): 740 nm; solubility at 30 min [2]: 5.82 µg/mL
CCOc1ccc(OCC)c2c1C1=NC/2=N\c2c3c(OCC)ccc(OCC)c3c3[n]2[Zn][n]2/c(c4c(OCC)ccc(OCC)c4/c2=N/C2=NC(=N\3)/c3c(OCC)ccc(OCC)c32)=N\1 [Example A-6],744,–,solubility at 30 min [2]: 15.5 µg/mL
O=C1C2=C(c3cnc4ccccc4n3)N(B(c3ccccc3)c3ccccc3)C(=O)C2=C(c2cnc3ccccc3n2)N1B(c1ccccc1)c1ccccc1 [Example A-21],710,5.47,–
CC1N(C)c2cc(NC(=O)CSC(=N)N)c(C3=C([O-])/C(=c4\cc5c(cc4NC(=O)CSC(=N)N)=[N+](C)C(C)C5(C)C)C3=O)cc2C1(C)C (stereo not drawn) [Example A-23],708,5.62,–
CC1N(C)c2cc(NC(=O)c3ccc4c(c3)C(=O)N(C)C4=O)c(C3=C([O-])/C(=c4\cc5c(cc4NC(=O)c4ccc6c(c4)C(=O)N(C)C6=O)=[N+](C)C(C)C5(C)C)C3=O)cc2C1(C)C (stereo not drawn) [Example A-24],711,7.88,–
CCNC(=O)NC1=CC(=[N+](CC)CC)C=C/C1=C1/C(=O)C(c2ccc(N(CC)CC)cc2NC(=O)NCC)=C1[O-] [Example A-25],680,2.51,–
CC1C(/C=C2/C(=O)C(/C=C3/C(C)c4cc(C(N)=O)ccc4N3C)=C2[O-])=[N+](C)c2ccc(C(N)=O)cc21 (stereo not drawn) [Example A-26],665,11.2,–
CC(=O)NC1CCC2(CC1)N=c1/c(=C3/C(=O)C(c4ccc5cccc6c5c4NC4(CCC(NC(C)=O)CC4)N6)=C3O)ccc3cccc(c13)N2 (stereo not drawn) [Example A-27],810,6.74,–
C/C(C1=C(O)/C(=C(/C)C2=Nc3ccccc3C2CCN)C1=O)=C1/Nc2ccccc2C1CCN (stereo not drawn) [Example A-28],737,1.92,–
NC(=O)C1N=c2/c(=C3/C(=O)C(c4ccc5cccc6c5c4NC(C(N)=O)N6)=C3O)ccc3cccc(c23)N1 (stereo not drawn) [Example A-29],810,0.57,–
O=C1C(c2ccc(N(c3ccccc3)c3ccccc3)cc2NS(=O)(=O)C(F)(F)F)=C(O)/C1=C1/C=CC(N(c2ccccc2)c2ccccc2)=C/C1=N\S(=O)(=O)C(F)(F)F [Example A-30],737,3.58,–
O=C1C(c2ccc3cccc4c3c2NB(c2ccc(O)cc2)N4)=C(O)/C1=c1/ccc2cccc3c2c1=NB(c1ccc(O)cc1)N3 [Example A-31],823,7.69,–
CCN1/C(=C/C2=C([O-])C(=C/c3sc4c5ccccc5ccc4[n+]3CC)/C2=O)Sc2c1ccc1ccccc21 [Example A-32],705,0.42,–
CCOC(=O)NC1=CC(=[N+](CC)CC)C=C/C1=C1/C(=O)C(c2ccc(N(CC)CC)cc2NC(=O)OCC)=C1[O-] [Example A-34],680,7.72,–
CC(=O)NC1=CC(=[N+]2CCCC2)C(C)=C/C1=C1/C(=O)C(c2cc(C)c(N3CCCC3)cc2NC(C)=O)=C1[O-] [Example A-35],700,5.11,–
CCN(CC)c1cc2[nH]c(=O)c3ccc(cc3)c(=O)[nH]c3cc(=[N+](CC)CC)c(C)cc3c3c([O-])c(c3=O)c2cc1C [Example A-36],715,4.29,–
CC1(C)c2ccccc2N(c2cc(O)c(C3=C([O-])C(=C4C(O)=CC(=[N+]5c6ccccc6C(C)(C)c6ccccc65)C=C4O)C3=O)c(O)c2)c2ccccc21 [Example A-37],675,0.65,–
O=C1C(=C2C(O)=CC(=[N+]3c4ccccc4-c4ccccc43)C=C2O)C([O-])=C1c1c(O)cc(-n2c3ccccc3c3ccccc32)cc1O [Example A-38],750,0.88,–
O=C1C(c2ccc(N3CCCCC3)cc2NC(=O)C(F)(F)F)=C([O-])/C1=C1\C=CC(=[N+]2CCCCC2)C=C1NC(=O)C(F)(F)F [Example A-39],698,2.68,–
CC1=CC(=[N+](c2ccccc2)c2ccccc2)S/C1=C1/C(=O)C(c2sc(N(c3ccccc3)c3ccccc3)cc2C)=C1[O-] [Example A-40],706,11.2,–
CNC(=O)Nc1cc(N2CCCC2)c(C)cc1C1=C([O-])/C(=c2\cc3c4c(c2NC(=O)NC)CCC[N+]=4CCC3)C1=O [Example A-41],710,0.94,–
CCN1/C(=C/C2=C([O-])C(=C\c3sc4ccccc4[n+]3CC)/C(=O)C2=O)Sc2ccccc21 [Example A-43],848,2.22,–
